Test: Raman spectroscopic measurement of solute concentration in multi-component solvent mixtures
Assay type: physicochemical
Settings: prepared at 10 mg/mL
Protocol: FIGS. 1B and 1C depict calibration spectra for a two-component system (component A and component B) in which the solute from FIG. 1A is homogeneously distributed. FIG. 1B represents a calibration spectrum for single-component A while FIG. 1C represents a calibration spectrum for single-component B. The concentration of both single-component systems is 15 mg/mL. FIG. 1D depicts a Raman spectrum of the two-component system (A and B) with an unknown solute concentration. The ratio of A:B is 1:1 in the unknown sample. FIG. 1E is a representation of the Raman intensities at a particular frequency (v1) in both calibration spectra. A dotted line has been drawn between the calibration intensities and illustrates the expected Raman intensities at frequency v1 due to the solute molecule in mixtures of both components. […] In view of FIG. 1E, the ratio of components in the unknown sample can be used to determine the concentration of solute. […] A solute concentration above 15 mg/mL results in a Raman intensity greater than (IA+IB)/2 while a solute concentration below 15 mg/mL results in a Raman intensity less than (IA+IB)/2. Due to a directly proportional and linear relationship between Raman scattering intensity and concentration, values both above and below 15 mg/mL are easily calculated based on the measured Raman intensity of the unknown (multi-component) sample.
In another embodiment, automated software can be programmed to analyze the data. First, the software identifies the spectral peaks and intensities that are unique to the solute molecule by direct comparison with a solvent only (signature) spectrum. The various single-component (calibration) Raman spectra are then accessed and a calibration matrix is configured and saved from these single-component data. […] The concentration of solute in the multi-component system is calculated using a weighted average determination. For instance, the concentration (C) of a solute in a multi-component system can be calculated by using equation (1), C=a1c1+a2c2+a3c3+ . . . […]

Row | Compound | mean value for the concentration (1:1 binary mixtures by volume (Table IV), RSD 9.7 percent) [mg/mL] | mean value for the concentration (1:1:1 ternary mixtures by volume (Table II), RSD 6.7 percent) [mg/mL] | mean value for the concentration (1:3 binary mixtures of excipients by volume (Table I), two trials, RSD 9.6 percent) [mg/mL]
1 | CC(=O)Oc1ccccc1C(=O)O [Acetylsalicylic acid] | 10.19 |  | 
2 | CC(=O)Nc1ccc(O)cc1 [Acetaminophen] |  | 9.48 | 10.18
